Assay results as given in ChEMBL document CHEMBL1134958 (Bioorg Med Chem Lett, 2002).

How the values were obtained:
[1] = Aqueous stability was evaluated as half life at 37 degree C at pH 7; format: physicochemical; conditions: aqueous solution
[2] = Aqueous stability was evaluated as half life at 37 degree C at pH 9; format: physicochemical; conditions: aqueous solution
Tryptase = Tryptase (Homo sapiens, UniProt Q9BZJ3+Q15661+Q9NRR2); assay: Inhibitory concentration against human tryptase
[3] = Ratio of inhibitory activities against human tryptase to that of human plasmin
[4] = Ratio of inhibitory activities against human tryptase to that of human thrombin
[5] = Ratio of inhibitory activities against human tryptase to that of human tissue plasminogen activator (tissue plasminogen activator)
[6] = Ratio of inhibitory activities against human tryptase to that of human trypsin
[7] = Ratio of inhibitory activities against human tryptase to that of human urokinase plasminogen activator (microPa)

SMILES | half-life [1] [h] | half-life [2] [h] | IC50 (Tryptase) [nM] | Ratio [3] | Ratio [4] | Ratio [5] | Ratio [6] | Ratio [7]
N=C(N)N1CCCC(C[C@H]2C(=O)N(C(=O)N3CCN(C(=O)NCCCCc4ccccc4)CC3)[C@@H]2C(=O)O)C1 (stereo partly specified) | > 48 | 12 | < 1.7 | > 16100 | > 19400 | > 19400 | > 1360 | > 8780
N=C(N)NCCC[C@H]1C(=O)N(C(=O)N2CCN(C(=O)CCCCCc3ccccc3)CC2)[C@@H]1C(=O)O |  |  | < 1.7 | > 26 | > 16500 | > 16500 | > 8 | > 226
CN(CCCCc1ccccc1)C(=O)N1CCN(C(=O)N2C(=O)[C@H](CC3CCCN(C(=N)N)C3)[C@H]2C(=O)O)CC1 (stereo partly specified) | > 48 | 23.9 | 6 | 3620 | > 5500 | > 5500 | 2170 | > 5500
CC(C)C(OC(=O)N1CCN(C(=O)N2C(=O)[C@H](CC3CCCN(C(=N)N)C3)[C@H]2C(=O)O)CC1)C(C)C (stereo in doubt; form 2) [listing 1 of 2 here] |  |  | 63 |  |  |  |  | 
N=C(N)N1CCCC(C[C@H]2C(=O)N(C(=O)N3CCN(C(=O)CCCCCc4ccccc4)CC3)[C@@H]2C(=O)O)C1 (stereo partly specified) | > 48 | > 17.5 | < 1.7 | > 16300 | > 19400 | > 19400 | > 1940 | > 17500
N=C(N)N1CCCC(C[C@H]2C(=O)N(C(=O)N3CCN(C(=O)CCCCCC4CCCCC4)CC3)[C@@H]2C(=O)O)C1 (stereo partly specified) |  |  | 1.9 | 8420 | > 17400 | > 17400 | 1680 | 12100
CC(C)(C)NC(=O)N1CCN(C(=O)N2C(=O)[C@H](CCCN=C(N)N)[C@H]2C(=O)O)CC1 | > 48 |  |  | 430 | 2620 | > 8250 | 18 | 135
N=C(N)N1CCCC(C[C@H]2C(=O)N(C(=O)N3CCN(C(=O)CCCCCc4ccccn4)CC3)[C@@H]2C(=O)O)C1 (stereo partly specified) |  |  | 4.6 | > 7150 | > 7150 | > 7150 | 739 | 5000
CC(C)C(OC(=O)N1CCN(C(=O)N2C(=O)[C@H](CC3CCCN(C(=N)N)C3)[C@H]2C(=O)O)CC1)C(C)C (stereo in doubt; form 1) [listing 1 of 2 here] |  |  |  | > 465 | > 465 | > 465 | 258 | > 465
CC(C)C(OC(=O)N1CCN(C(=O)N2C(=O)[C@H](CC3CCCN(C(=N)N)C3)[C@H]2C(=O)O)CC1)C(C)C (stereo in doubt; form 1) [listing 2 of 2 here] | > 48 | > 48 | 71 |  |  |  |  | 
N=C(N)N1CCCC(C[C@H]2C(=O)N(C(=O)N3CCN(C(=O)OCCCOc4ccccc4)CC3)[C@@H]2C(=O)O)C1 (stereo partly specified) |  |  | < 1.7 | > 92500 | > 19400 | > 19400 | > 1680 | > 19400
CC(C)C(OC(=O)N1CCN(C(=O)N2C(=O)[C@H](CCCN=C(N)N)[C@H]2C(=O)O)CC1)C(C)C | > 48 | 7.3 | 4 | 364 | > 9170 | 9170 | 5 | 843
CC(C)C(OC(=O)N1CCN(C(=O)N2C(=O)[C@H](CC3CN(C(=N)N)C3)[C@H]2C(=O)O)CC1)C(C)C | > 48 | 14.4 | 12 | 394 | > 2840 | 2840 | 7 | 862
CC(C)C(OC(=O)N1CCN(C(=O)N2C(=O)[C@H](CC3CCCN(C(=N)N)C3)[C@H]2C(=O)O)CC1)C(C)C (single isomer, unassigned) [listing 1 of 2 here] |  |  | 204 |  |  |  |  | 
CC(C)C(OC(=O)N1CCN(C(=O)N2C(=O)[C@H](CC3CCCN(C(=N)N)C3)[C@H]2C(=O)O)CC1)C(C)C (stereo in doubt; form 2) [listing 2 of 2 here] |  |  |  | > 465 | > 465 | > 465 | 364 | > 465
N=C(N)N1CCC[C@@H](C[C@H]2C(=O)N(C(=O)N3CCN(C(=O)CCCCCc4ccccc4)CC3)[C@@H]2C(=O)O)C1 | > 48 | > 17.5 | < 1.7 | > 19400 | > 19400 | > 19400 | > 3280 | > 19400
N=C(N)N1CCC[C@H](C[C@H]2C(=O)N(C(=O)N3CCN(C(=O)CCCCCc4ccccc4)CC3)[C@@H]2C(=O)O)C1 | > 48 | > 17.5 | < 1.7 | > 12900 | > 19400 | > 19400 | > 3390 | > 11800
CC(C)C(OC(=O)N1CCN(C(=O)N2C(=O)[C@H](CC3CCCN(C(=N)N)C3)[C@H]2C(=O)O)CC1)C(C)C (single isomer, unassigned) [listing 2 of 2 here] |  |  |  | > 162 | > 162 | > 162 | > 162 | > 162
